O=C(O)CCC(=O)C(=O)O
solubility (mole fraction)
Details	278.15 K	280.15 K	282.15 K	284.15 K	286.15 K	288.15 K	293.15 K
in ethyl acetate	0.0358	0.0374	0.0392	0.0418	0.0455	0.0494	0.0603
in n-butyl acetate	0.0261	0.0284	0.0303	0.0337	0.0363	0.0391	0.0466
in water	0.11	0.114	0.12	0.128	0.135	0.146	0.168

Source: BigSolDB 2.1
